Entries after “also recorded” stand apart in the source; their conditions may differ. Read-outs that look alike come from different tables or passages of the source.
Legend:
MiaPaCa-2 = experiment: Proliferation assay (CellTiter Glo), MiaPaCa-2; assay type: cell-based; conditions: for Top inhibition %: 96 hours
Method: (§1) Briefly, cells at a density of 1,000-10,000 cells/well were seeded in 96-well plates and incubated at 37′C for 24 hours. A series of 9 different concentrations of compound stocks (500×) were created by 3-fold serial dilution in DMSO. These compounds were further diluted in culture media and then added to cells so that the final DMSO concentration was 0.2%. After 96 hours of incubation, 50 μL of CellTiter Glo reagent (Promega) was added to each well and luminescence was measured after 10 minutes using EnVision (PerkinElmer). […] The dose range for most compounds was 4.6 nM-30 μM. The dose ranges for some compounds were adjusted downward to 0.46 nM-3 μM or 0.08 nM-0.5 μM or 0.03 nM-0.2 μM. Luminescence from cells treated with […] alone was set as Max and % of inhibition was calculated as follows: Inhibition %=(Max-Sample value)/Max*100. Data was analyzed using XL-fit software (ID Business Solutions Ltd.) and EC50, relative EC50, and % of top inhibition were calculated.

AsPC-1 = experiment: Proliferation assay (CellTiter Glo), AsPC-1; assay type: cell-based; conditions: for Top inhibition %: 96 hours
Method: as §1, with “calculated. The results are shown in Tables 3-6 for pancreatic cancer, lung cancer, colon/gastric cancer, and leukemia cell lines.” for “calculated.”

Panc2.13 = experiment: Proliferation assay (CellTiter Glo), Panc2.13; assay type: cell-based; conditions: for Top inhibition %: 96 hours
Method: as §1, with “calculated. The results are shown in Tables 3-6 for pancreatic cancer, lung cancer, colon/gastric cancer, and leukemia cell lines.” for “calculated.”

H441 = experiment: Proliferation assay (CellTiter Glo), H441; assay type: cell-based; conditions: for Top inhibition %: 96 hours
Method: as §1, with “calculated. The results are shown in Tables 3-6 for pancreatic cancer, lung cancer, colon/gastric cancer, and leukemia cell lines.” for “calculated.”

SW620 = experiment: Proliferation assay (CellTiter Glo), SW620; assay type: cell-based; conditions: for Top inhibition %: 96 hours; for EC50: read-out: Ab EC50
Method: as §1, with “calculated. The results are shown in Tables 3-6 for pancreatic cancer, lung cancer, colon/gastric cancer, and leukemia cell lines.” for “calculated.”

HCT116 = experiment: Proliferation assay (CellTiter Glo), HCT116; assay type: cell-based; conditions: for Top inhibition %: 96 hours
Method: as §1, with “calculated. The results are shown in Tables 3-6 for pancreatic cancer, lung cancer, colon/gastric cancer, and leukemia cell lines.” for “calculated.”

HL60 = experiment: Proliferation assay (CellTiter Glo), HL60; assay type: cell-based; conditions: for Top inhibition %: 96 hours
Method: as §1, with “calculated. The results are shown in Tables 3-6 for pancreatic cancer, lung cancer, colon/gastric cancer, and leukemia cell lines.” for “calculated.”

CCRF-CEM = experiment: Proliferation assay (CellTiter Glo), CCRF-CEM; assay type: cell-based; conditions: for Top inhibition %: 96 hours
Method: as §1, with “calculated. The results are shown in Tables 3-6 for pancreatic cancer, lung cancer, colon/gastric cancer, and leukemia cell lines.” for “calculated.”

H838 = experiment: Proliferation assay (CellTiter Glo), H838; assay type: cell-based; conditions: H838 (WT K-ras)
Method: as §1
Other cancer cell lines having wild-type K-ras status and K-ras mutation at G12 were also screened using the PKC activator compounds. […] K-104 was tested in a range of 0.03 nM-0.2 μM. […] The dose ranges were adjusted downward to 0.46 nM-3 μM for K-102 and 0.08 nM-0.5 μM for K-103 for some cell lines.

PKCδ = PKCδ Tyr311 phosphorylation in A549, HCT116, SW620, Panc02.13 cells, Western blot; assay type: cell-based; conditions: 30 minutes
Method: Non-cancerous lung fibroblast cell line HFL-1 or cancer cells (2-8 million cells) were seeded in 10 cm dishes and grown overnight so that the cells were about 40-80% confluent before treatment with the compound. Cells were then treated with different drugs at indicated concentrations (see descriptions for FIG. 11 and FIG. 12) for 30 minutes. Cell lysate preparation, protein quantitation, SDS-PAGE, and Western blotting procedures are described in Example 2 and 4. Primary antibodies used in this Example and later Examples of this application are shown in Table A. Secondary antibodies Anti-mouse IgG HRP conjugate or Anti-rabbit IgG HRP conjugate (dilutions from 1:2000-1:10000) were used. Western blot membranes were scanned using Imagequant LAS4000 (GE). The results are shown in FIG. 11A and FIG. 11B for HFL-1 cells and FIG. 11C and FIG. 12 for A549 cells.

[1] = tested on: PKCδ, PKCμ, c-Raf in MBT-2; experiment: Activation of PKC isoforms in bladder cancer line MBT-2, Western blot; assay type: cell-based, mouse
Wnt signaling pathway = experiment: TOPFlash / TK-RL Dual Luciferase assay (Wnt signaling), A549; assay type: cell-based; conditions: 24 hours, K101A 1, 3, 10 μM, K102 0.03, 0.1, 0.3 μM
Method: A549 cells (20K cells/well) were seeded in 96-well plates on Day 1. Cells were transfected with a mixture of TOPFlash firefly luciferase reporter plasmid M50 (300 ng/well) (Adagene) and an internal control plasmid pRL-TK-Renilla luciferase (20 ng/well) (Promega) using FuGene transfection reagent (plasmid:FuGene=1:4) (Promega) on Day 2. […] Luciferase activities in treated cells were measured using Dual-Glo Luciferase Kit according to manufacturer's instructions (Promega) on Envision (Perkin Elmer). TOPFlash has been used as a reporter for activation of Wnt signaling pathway. […] It has been reported that PKC activators, via suppression of K-Ras stemness pathway, can block canonical Wnt signaling in pancreatic cancer cells. The data here indicate that PKC activator can also block canonical Wnt signaling in lung cancer cells.

[2] = literature reports; cited from earlier work
[3] = absolute EC50, 96 hours, read-out: Ab EC50
[4] = relative EC50, 96 hours, read-out: Re EC50

Question: For CC(=O)O[C@@]12C[C@@H](C)[C@]3(O)C4C=C(C)C(=O)[C@@]4(O)CC(CO)=C[C@H]3[C@@H]1C2(C)C (some centres unmarked) [Compound K-101A, Prostratin], which Top inhibition % (MiaPaCa-2) is on record?
Answer: 74.4%

Question: What about the EC50 (MiaPaCa-2; Homo sapiens, MIA PaCa-2, absolute EC50, 96 hours, read-out: Ab EC50) of the same molecule?
Answer: 300 nM

Question: What about the EC50 (MiaPaCa-2; Homo sapiens, MIA PaCa-2, relative EC50, 96 hours, read-out: Re EC50) of the same molecule?
Answer: 180 nM

Question: And the Top inhibition % (AsPC-1)?
Answer: 32.4%

Question: What about the EC50 (AsPC-1; Homo sapiens, ASPC1, absolute EC50, 96 hours, read-out: Ab EC50) of the same molecule?
Answer: > 30000 nM

Question: What about the EC50 (AsPC-1; Homo sapiens, ASPC1, relative EC50, 96 hours, read-out: Re EC50) of the same molecule?
Answer: 270 nM

Question: What about the Top inhibition % (Panc2.13) of the same molecule?
Answer: 43.4%

Question: And the EC50 (Panc2.13; [3])?
Answer: > 30000 nM

Question: And the EC50 (Panc2.13; [4])?
Answer: 17 nM

Question: And the Top inhibition % (H441)?
Answer: 42.1%

Question: And the EC50 (H441; Homo sapiens, NCI-H441, absolute EC50, 96 hours, read-out: Ab EC50)?
Answer: > 30000 nM

Question: And the EC50 (H441; Homo sapiens, NCI-H441, relative EC50, 96 hours, read-out: Re EC50)?
Answer: 320 nM

Question: What about the Top inhibition % (SW620) of the same molecule?
Answer: 0.0%

Question: And the EC50 (SW620; Homo sapiens, SW-620, absolute EC50, 96 hours)?
Answer: > 30000 nM

Question: And the Top inhibition % (HCT116)?
Answer: 17.4%

Question: What about the EC50 (HCT116; Homo sapiens, HCT-116, absolute EC50, 96 hours, read-out: Ab EC50) of the same molecule?
Answer: > 30000 nM

Question: What about the Top inhibition % (HL60) of the same molecule?
Answer: 61.3%

Question: And the EC50 (HL60; Homo sapiens, HL-60, absolute EC50, 96 hours, read-out: Ab EC50)?
Answer: 470 nM

Question: What about the EC50 (HL60; Homo sapiens, HL-60, relative EC50, 96 hours, read-out: Re EC50) of the same molecule?
Answer: 400 nM

Question: And the Top inhibition % (CCRF-CEM)?
Answer: 35.9%

Question: What about the EC50 (CCRF-CEM; Homo sapiens, absolute EC50, 96 hours, read-out: Ab EC50) of the same molecule?
Answer: > 30000 nM

Question: And the EC50 (CCRF-CEM; Homo sapiens, relative EC50, 96 hours, read-out: Re EC50)?
Answer: 51 nM

Question: And the “Top inhibition %” value (H838)?
Answer: 10.1%

Question: What about the “PKCδ activation, phosphorylation at Tyr311” value (PKCδ) of the same molecule?
Answer: observed for cell lines HCT116 and SW620 but not as significantly for cell lines A549 and Pan 02,13; also recorded: observed for cell lines HCT116 and SW620 but not as significantly for cell lines A549 and Panc02.13

Question: And the “phosphorylations of PKCδ at Thr505, PKCμ at Ser744/748, PKCμ at Ser916, c-Raf at Ser338” value [1]?
Answer: induced phosphorylations

Question: And the “maximal inhibition of TOPFlash activity” value (Wnt signaling pathway)?
Answer: about 60%

Question: What about the tumor promotion [2] of the same molecule?
Answer: non-tumor-promoting

Question: Which results are given for CC(=O)OCC1=C[C@H]2[C@@H]3C(C)(C)[C@]3(OC(C)=O)C[C@@H](C)[C@]2(O)C2C=C(C)C(=O)[C@@]2(O)C1 (some centres unmarked) [Compound K-101E]?
Answer: Top inhibition % (MiaPaCa-2): 61.4%; EC50 (MiaPaCa-2; [3]): 1880 nM; EC50 (MiaPaCa-2; [4]): 860 nM; Top inhibition % (AsPC-1): 35.2%; EC50 (AsPC-1; [3]): > 30000 nM; EC50 (AsPC-1; [4]): 2780 nM; Top inhibition % (Panc2.13): 49.8%; EC50 (Panc2.13; [3]): > 30000 nM; EC50 (Panc2.13; [4]): 44 nM; Top inhibition % (H441): 49.1%; EC50 (H441; [3]): > 30000 nM; EC50 (H441; [4]): 2610 nM; Top inhibition % (SW620): 0.0%; EC50 (SW620; absolute EC50, 96 hours): > 30000 nM; Top inhibition % (HCT116): 27.4%; EC50 (HCT116; [3]): > 30000 nM; EC50 (HCT116; [4]): 6640 nM; Top inhibition % (HL60): 63.4%; EC50 (HL60; [3]): 3050 nM; EC50 (HL60; [4]): 1920 nM; Top inhibition % (CCRF-CEM): 34.3%; EC50 (CCRF-CEM; [3]): > 30000 nM; EC50 (CCRF-CEM; [4]): 270 nM; Top inhibition % (H838): 26.8%

Question: Which “PKCδ activation, phosphorylation at Tyr311” value (PKCδ) does the source give for C/C=C(/C)C(=O)O[C@H]1C(C)=C[C@]23C(=O)[C@@H](C=C(CO)[C@@H](O)[C@]12O)[C@H]1[C@@H](C[C@H]3C)C1(C)C [Compound K-102, Ingenol-3-angelate, reference compound] here?
Answer: observed for PKC activator insensitive cell lines HCT116 and SW620 but not as significantly for sensitive cell lines A549 and Pan 02,13; also recorded: observed for cell lines HCT116 and SW620 but not as significantly for cell lines A549 and Panc02.13

Question: And the “phosphorylations of PKCδ at Thr505, PKCμ at Ser744/748, PKCμ at Ser916, c-Raf at Ser338” value ([1]; MBT-2, K101A 1 μM, K102 0.1 μM)?
Answer: induced phosphorylations
